Measured values reported in publication PMC4774911, “Biochemical Screening of Five Protein Kinases from Plasmodium falciparum against 14,000 Cell-Active Compounds” (PLoS ONE, 2016).
“And” between values parts separate entries of the source, which are not always exact repeats. Equal entries are not always repeated.

What was measured:
Test in all cases: biochemical
CDC2 = CDC2 (Homo sapiens, UniProt P06493)
GSK3B = GSK3B (Homo sapiens, UniProt P49841)
IKBKB = target: T1, IKBKB (Homo sapiens, UniProt O14920)
T1 sequence (O14920 1-756): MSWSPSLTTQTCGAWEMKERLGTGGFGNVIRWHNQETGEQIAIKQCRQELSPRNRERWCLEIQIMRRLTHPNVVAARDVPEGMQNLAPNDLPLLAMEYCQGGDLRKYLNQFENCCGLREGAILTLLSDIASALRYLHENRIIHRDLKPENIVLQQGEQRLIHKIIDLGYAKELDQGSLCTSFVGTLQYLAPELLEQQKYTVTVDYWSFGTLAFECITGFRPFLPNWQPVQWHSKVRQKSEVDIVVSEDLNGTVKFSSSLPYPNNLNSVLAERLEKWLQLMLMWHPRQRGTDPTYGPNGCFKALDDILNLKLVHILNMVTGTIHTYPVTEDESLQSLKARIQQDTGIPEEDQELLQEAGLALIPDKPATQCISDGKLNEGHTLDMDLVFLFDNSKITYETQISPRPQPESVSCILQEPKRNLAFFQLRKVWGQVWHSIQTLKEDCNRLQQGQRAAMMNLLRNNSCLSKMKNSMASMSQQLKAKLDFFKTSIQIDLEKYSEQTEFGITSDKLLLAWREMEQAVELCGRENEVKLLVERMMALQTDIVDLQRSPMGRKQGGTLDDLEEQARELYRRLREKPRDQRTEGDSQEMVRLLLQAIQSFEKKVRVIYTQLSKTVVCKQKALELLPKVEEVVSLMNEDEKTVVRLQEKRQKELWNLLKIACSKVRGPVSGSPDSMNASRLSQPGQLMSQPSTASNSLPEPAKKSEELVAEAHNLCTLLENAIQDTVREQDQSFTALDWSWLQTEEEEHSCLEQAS

MARK3 = MARK3 (Homo sapiens, UniProt P27448)
Sequence of MARK3 (P27448 whole entry): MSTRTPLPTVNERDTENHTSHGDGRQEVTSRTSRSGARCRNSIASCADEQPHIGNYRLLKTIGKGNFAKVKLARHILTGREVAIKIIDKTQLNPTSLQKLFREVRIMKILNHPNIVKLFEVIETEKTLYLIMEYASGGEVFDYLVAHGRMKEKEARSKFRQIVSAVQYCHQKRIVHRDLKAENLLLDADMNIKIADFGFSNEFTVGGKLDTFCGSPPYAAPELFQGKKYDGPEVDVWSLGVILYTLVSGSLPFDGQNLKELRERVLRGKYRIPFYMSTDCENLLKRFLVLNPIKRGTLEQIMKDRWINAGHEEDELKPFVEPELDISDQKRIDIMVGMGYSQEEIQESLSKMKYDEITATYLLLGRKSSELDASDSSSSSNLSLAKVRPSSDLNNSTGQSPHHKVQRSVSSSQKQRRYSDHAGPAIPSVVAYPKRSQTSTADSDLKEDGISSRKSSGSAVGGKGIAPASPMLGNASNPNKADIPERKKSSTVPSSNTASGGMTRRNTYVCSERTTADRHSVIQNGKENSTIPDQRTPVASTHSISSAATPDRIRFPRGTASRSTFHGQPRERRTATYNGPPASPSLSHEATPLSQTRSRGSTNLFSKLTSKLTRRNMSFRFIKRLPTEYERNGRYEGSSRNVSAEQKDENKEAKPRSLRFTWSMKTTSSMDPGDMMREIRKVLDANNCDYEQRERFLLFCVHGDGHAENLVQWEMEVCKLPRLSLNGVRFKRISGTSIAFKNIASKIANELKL

MERTK = target: T2, MERTK (Homo sapiens, UniProt Q12866)
T2 sequence (Q12866 1-999): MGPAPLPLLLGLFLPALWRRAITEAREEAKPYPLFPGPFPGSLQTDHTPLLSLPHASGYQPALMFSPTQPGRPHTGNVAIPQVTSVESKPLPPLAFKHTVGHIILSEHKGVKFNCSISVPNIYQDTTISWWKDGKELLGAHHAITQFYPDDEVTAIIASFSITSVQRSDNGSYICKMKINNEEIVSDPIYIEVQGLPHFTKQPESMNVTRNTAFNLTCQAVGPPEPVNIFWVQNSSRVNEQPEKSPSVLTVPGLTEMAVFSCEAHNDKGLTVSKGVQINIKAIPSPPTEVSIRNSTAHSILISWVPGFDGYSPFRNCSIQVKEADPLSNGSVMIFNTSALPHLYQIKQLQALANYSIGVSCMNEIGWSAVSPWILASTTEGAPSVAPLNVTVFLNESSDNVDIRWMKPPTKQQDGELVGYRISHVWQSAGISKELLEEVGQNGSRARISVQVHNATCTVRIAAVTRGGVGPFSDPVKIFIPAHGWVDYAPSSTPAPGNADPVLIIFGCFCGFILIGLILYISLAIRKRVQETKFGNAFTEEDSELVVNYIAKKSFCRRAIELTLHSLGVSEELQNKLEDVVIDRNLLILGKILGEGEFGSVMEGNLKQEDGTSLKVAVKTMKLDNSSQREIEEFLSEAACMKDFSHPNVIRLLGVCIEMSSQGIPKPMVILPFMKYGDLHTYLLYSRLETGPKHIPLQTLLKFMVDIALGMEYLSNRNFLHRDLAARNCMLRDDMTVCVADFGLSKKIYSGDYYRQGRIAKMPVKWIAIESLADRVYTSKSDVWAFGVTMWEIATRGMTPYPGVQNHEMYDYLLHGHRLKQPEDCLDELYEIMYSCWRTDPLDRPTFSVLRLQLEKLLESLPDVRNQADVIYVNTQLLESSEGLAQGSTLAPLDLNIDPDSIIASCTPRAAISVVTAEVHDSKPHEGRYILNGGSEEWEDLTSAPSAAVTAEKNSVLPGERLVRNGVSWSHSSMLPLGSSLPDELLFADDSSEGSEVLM

STK11 = target: T3, STK11 (Homo sapiens, UniProt Q15831)
T3 sequence (Q15831 1-433): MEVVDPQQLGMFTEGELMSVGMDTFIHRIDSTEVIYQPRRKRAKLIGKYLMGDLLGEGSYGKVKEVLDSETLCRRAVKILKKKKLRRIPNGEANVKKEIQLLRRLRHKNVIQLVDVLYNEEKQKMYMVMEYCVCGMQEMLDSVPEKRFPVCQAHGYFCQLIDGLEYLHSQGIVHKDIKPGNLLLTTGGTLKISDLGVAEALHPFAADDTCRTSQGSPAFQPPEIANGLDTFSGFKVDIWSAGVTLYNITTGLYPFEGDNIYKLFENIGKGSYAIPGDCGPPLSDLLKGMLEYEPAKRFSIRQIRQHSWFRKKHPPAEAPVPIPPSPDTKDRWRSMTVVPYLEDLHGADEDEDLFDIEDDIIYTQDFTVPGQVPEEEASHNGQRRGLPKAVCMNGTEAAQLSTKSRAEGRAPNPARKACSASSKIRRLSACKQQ

Sequence of GSK3B (P49841 whole entry): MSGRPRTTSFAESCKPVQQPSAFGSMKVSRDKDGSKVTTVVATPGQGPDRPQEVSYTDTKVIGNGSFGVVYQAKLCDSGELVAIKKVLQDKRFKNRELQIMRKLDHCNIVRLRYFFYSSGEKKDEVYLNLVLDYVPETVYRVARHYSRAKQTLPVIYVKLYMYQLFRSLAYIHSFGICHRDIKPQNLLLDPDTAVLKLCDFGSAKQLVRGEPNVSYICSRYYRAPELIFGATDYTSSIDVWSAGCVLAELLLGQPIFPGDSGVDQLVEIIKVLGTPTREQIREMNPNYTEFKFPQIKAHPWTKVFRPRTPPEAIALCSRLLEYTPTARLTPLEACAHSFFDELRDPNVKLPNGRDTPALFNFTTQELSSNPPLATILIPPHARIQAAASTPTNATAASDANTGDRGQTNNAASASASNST
Sequence of CDC2 (P06493 whole entry): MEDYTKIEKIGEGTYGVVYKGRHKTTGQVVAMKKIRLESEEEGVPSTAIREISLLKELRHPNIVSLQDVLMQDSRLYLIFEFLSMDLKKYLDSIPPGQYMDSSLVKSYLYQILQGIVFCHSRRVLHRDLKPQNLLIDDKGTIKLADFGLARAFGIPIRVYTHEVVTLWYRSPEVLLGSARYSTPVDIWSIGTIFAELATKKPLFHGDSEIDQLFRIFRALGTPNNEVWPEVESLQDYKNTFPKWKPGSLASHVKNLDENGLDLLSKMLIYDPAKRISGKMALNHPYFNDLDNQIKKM

SMILES	IC50 (CDC2) [µM]	IC50 (GSK3B)	IC50 (IKBKB) [µM]	IC50 (MARK3)	IC50 (MERTK) [µM]	IC50 (STK11) [µM]
CN1CCN(c2ccc(Nc3ncc(C#N)c(Nc4ccccc4C(N)=O)n3)cc2)CC1.Cl [TCMDC-134116]	1.5	2.4 µM and 1.5 µM	> 20	0.12 µM and 0.14 µM	0.63	1
Cl.NCC1(c2nc(-c3ccc(Cl)c(O)c3)c(-c3ccncc3)[nH]2)CCCCC1 [TCMDC-141154]	> 20	7.7 µM	> 20	> 20 µM	9.3	1.4
CN(C)CC(O)COc1ccc(Nc2ncc([N+](=O)[O-])c(Nc3ccccc3O)n2)cc1.O=C(O)C(F)(F)F (stereo not drawn) [TCMDC-141399]	> 20	8.4 µM and 11 µM	> 20	10 µM and 6.6 µM	1.1	4.4
